Source: BindingDB's records for PubMed 3009454 (University of Wisconsin, 1986)

The molecules below were run against T1, Aryl hydrocarbon receptor (Mus musculus, UniProt P30561) (assay: Binding Assay). Conditions: pH 7.5; 0 °C.
T1 sequence (P30561 whole entry): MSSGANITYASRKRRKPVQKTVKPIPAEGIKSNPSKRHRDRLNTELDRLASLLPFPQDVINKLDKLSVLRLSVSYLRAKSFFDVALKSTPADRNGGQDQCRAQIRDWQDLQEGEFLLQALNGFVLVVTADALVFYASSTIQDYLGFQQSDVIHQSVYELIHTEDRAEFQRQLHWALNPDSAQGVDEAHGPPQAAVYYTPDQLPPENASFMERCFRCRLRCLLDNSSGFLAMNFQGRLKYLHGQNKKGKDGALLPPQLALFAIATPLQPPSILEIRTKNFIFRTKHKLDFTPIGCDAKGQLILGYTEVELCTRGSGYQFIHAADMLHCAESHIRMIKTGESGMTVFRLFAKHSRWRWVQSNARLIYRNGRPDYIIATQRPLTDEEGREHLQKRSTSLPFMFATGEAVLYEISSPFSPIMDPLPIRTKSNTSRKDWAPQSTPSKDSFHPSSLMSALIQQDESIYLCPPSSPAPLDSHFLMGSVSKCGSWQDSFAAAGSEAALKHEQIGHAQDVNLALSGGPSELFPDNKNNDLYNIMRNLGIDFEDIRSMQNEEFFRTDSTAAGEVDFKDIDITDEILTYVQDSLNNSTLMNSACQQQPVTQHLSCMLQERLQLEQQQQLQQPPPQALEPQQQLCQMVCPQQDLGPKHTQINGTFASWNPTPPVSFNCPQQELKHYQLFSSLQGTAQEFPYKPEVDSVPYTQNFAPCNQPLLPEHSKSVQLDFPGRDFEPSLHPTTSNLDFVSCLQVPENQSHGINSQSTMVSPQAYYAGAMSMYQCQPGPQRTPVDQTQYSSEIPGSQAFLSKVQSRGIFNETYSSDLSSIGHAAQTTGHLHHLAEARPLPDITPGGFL
Experimental: The equilibrium dissocation constants, KD values for the photoaffinity ligands were determined by a competitive binding assay.
Work on `[N-]=[N+]=Nc1cc(Cl)cc2c1Oc1cc(Cl)c(Cl)cc1O2` [Photoaffinity ligand, 1] yielded a Kd of 0.44 nM.
With `[N-]=[N+]=Nc1c(I)c(Cl)cc2c1Oc1cc(Cl)c(Cl)cc1O2` [Photoaffinity ligand, 2] the Kd was 2.1 nM.
Work on `[N-]=[N+]=Nc1cc2c(cc1Cl)Oc1cc(Cl)c(Cl)cc1O2` [Photoaffinity ligand, 3] yielded a Kd of 0.49 nM.
With `[N-]=[N+]=Nc1cc2c(cc1I)Oc1cc(Br)c(Br)cc1O2` [Photoaffinity ligand, 4] the Kd was 0.76 nM.
`[N-]=[N+]=Nc1ccc([N+](=O)[O-])c(C(=O)NCc2c(Cl)c(Cl)cc3c2Oc2cc(Cl)c(Cl)cc2O3)c1` [Photoaffinity ligand, 5] was tested, and the Kd was 13 nM.
Molecule `[N-]=[N+]=Nc1ccc(C(=O)NCc2c(Cl)c(Cl)cc3c2Oc2cc(Cl)c(Cl)cc2O3)cc1` [Photoaffinity ligand, 6] has a Kd of 8.1 nM.
Work on `[N-]=[N+]=Nc1ccc(C(=O)NCc2c(Cl)c(Cl)cc3c2Oc2cc(Cl)c(Cl)cc2O3)c(O)c1` [Photoaffinity ligand, 7] yielded a Kd of 113 nM.
`[N-]=[N+]=Nc1ccc(NCCCCCC(=O)NCc2c(Cl)c(Cl)cc3c2Oc2cc(Cl)c(Cl)cc2O3)c([N+](=O)[O-])c1` [Photoaffinity ligand, 8] gave a Kd of 11 nM.
